Laboratory results as given in patent US20250002465A1, “TRIMERIC COPPER CATALYSTS, INTERMEDIATES FOR MAKING SUCH CATALYSTS AND METHOD FOR PREPARING A CYCLOADDITION COMPOUND” (University of Kentucky Research Foundation, priority 2023, published 2025).

Assays:
[1] = Cyclic voltammetry, oxidation potential; assay type: physicochemical
[2] = Catalytic CuAAC reaction in water (phenylacetylene, benzyl azide), conversion by GC
[3] = tested on: MDA-MB-468 cells; assay: Intracellular Cu(I)-catalyzed click chemistry and mitochondria colocalization, confocal microscopy; assay type: cell-based; details: 100 μM catalyst, no THPTA or ascorbate
[4] = tested on: SUM-159; assay: Cytotoxicity, MTT assay; assay type: cell-based; details: SUM-159 cells, 72 hours
Experimental: FIG. 5 is a-b) Effect of 6 and 7 on cell viability in TNBC cells treated with the complexes for 72 hours. Mean±s.e.m. n=3. c) Structure of AuDTC-alkyne used for click experiment.
We first evaluated the cytotoxicity of the complexes (6 and 7) in triple-negative breast cancer cells, MDA-MB-468 and SUM-159 using MTT assay.

[5] = Stability of the complex to air, moisture and H2O2 (colour, EPR, UV-visible spectroscopy); assay type: physicochemical; details: for Colour change in the presence of air or moisture: over the course of weeks, solid or solution
Experimental: FIG. 2 illustrates Left: UV-vis absorbance spectra of 3+(CH3CN)4CuPF6 in H2O after 18 hours with 5 molar equivalents of H2O2. Right: UV-vis absorbance spectra after addition of N-methylimidazole to 3+(CH3CN)4CuPF6+5 molar equivalents of H2O2 in H2O after 18 hours incubation.
One of the most important aspects of catalysts for the biologically compatible CuAAC reaction is the ability to perform the reaction while not forming any ROS. Most Cu (I) complexes can be rapidly oxidized by oxygen to Cu (II) and form O2—, one of the first ROS that can then go on to react in myriad ways. […] To further verify this, we performed EPR measurements on solutions of 6 in the absence and presence of H2O2.
We then tested the chemical oxidation of solutions of 7 by UV-visible spectroscopy […]. Increasing amounts of H2O2 were added and the absorption spectrum was measured (FIG. 2).
Without the addition of oxidant, an absorption peak at 280 nm is the lowest energy feature in the spectrum. Aqueous solutions of Cu^2+ ions absorb visible light, typically due to low energy d-d transitions. Therefore, if Cu^2+ was formed, we would expect to observe the appearance of a new absorption in the visible region.

[6] = tested on: MDA-MB-468; assay: Cytotoxicity, MTT assay; details: read-out: IC50 (cytotoxicity), MDA-MB-468 cells, 72 hours
[7] = CH2Cl2, glassy carbon working electrode
[8] = catalyst concentration 20 mM, room temperature, 4 hr, average of two runs

COCCOCCn1c2ccccc2nc1[C@H]1C[C@@H](c2nc3ccccc3n2CCOCCOC)C[C@@H](c2nc3ccccc3n2CCOCCOC)C1 [compound 3, Cis,cis-1,3,5-cyclohexanetribenzimidazole-1-(2-(2-methoxyethoxy)ethyl)-2-yl]
Oxidation wave [1, 7]: irreversible oxidation near the same potential
Conversion [2, 8]: nearly quantitative

c1ccc2[nH]c([C@H]3C[C@@H](c4nc5ccccc5[nH]4)C[C@@H](c4nc5ccccc5[nH]4)C3)nc2c1 [compound 1, Cis,cis-1,3,5-cyclohexanetribenzimidazole-2-yl]
Conversion [2, 8]: ~18%

CCCCn1c2ccccc2nc1[C@H]1C[C@@H](c2nc3ccccc3n2CCCC)C[C@@H](c2nc3ccccc3n2CCCC)C1 [compound 2, Cis,cis-1,3,5-cyclohexanetribenzimidazole-1-butyl-2-yl]
Conversion [2, 8]: nearly quantitative

(Cis,cis-1,3,5-cyclohexanetribenzimidazole-1-(2-(2-methoxyethoxy)ethyl)-2-yl)2(Cu(I)PF6)3 [compound 7]
Oxidation wave ([1]; 0.1 M LiClO4 in H2O, Hg/Hg2SO4 reference): did not observe an oxidation wave
Irreversible reduction wave (Cu+/Cu0) ([1]; CH2Cl2): ~0 V vs. SCE
Oxidation wave [1, 7]: 1.85 V vs SCE
Click reaction between AuDTC-alkyne and azide fluorescein in cells [3]: effectively catalyzed
IC50 [4]: > 100 µM
Change of UV-visible absorption spectrum with N-methylimidazole and H2O2 ([5]; in-situ formed 7, five equivalents of H2O2 plus N-methylimidazole): no change in the absorption spectrum
Colour change in the presence of air or moisture [5]: did not change color
Change of UV-visible absorption spectrum with H2O2 ([5]; up to five molar equivalents of peroxide, 18 hours, room temperature): no appreciable change in the absorption spectrum
IC50 [6]: 78.6 µM
Conversion ([2]; 50 mM loading, water, 35° C., 1 hour): 75%
Conversion ([2]; catalyst concentration 0.5 μM, water, 35° C., 18 hr): 33%
Conversion ([2]; catalyst concentration 0.5 μM, water, ambient conditions, 18 hours): 6%
Conversion ([2]; catalyst concentration 1.0 μM, water, 35° C., 18 hr): 64%
Conversion ([2]; catalyst concentration 1 μM, water, ambient conditions, 18 hours): 8%
Conversion ([2]; catalyst concentration 5 μM, water, 35° C., 18 hr): ~88%
Conversion ([2]; catalyst concentration 5 μM, water, ambient conditions, 18 hours): ~13%
Conversion ([2]; catalyst concentration 10 μM, water, 35° C., 18 hr): quantitative
Conversion ([2]; catalyst concentration 10 μM, water, ambient conditions, 18 hours): ~13%
Conversion ([2]; catalyst concentration 50 μM, water, ambient conditions, 18 hours): ~36%

(Cis,cis-1,3,5-cyclohexanetribenzimidazole-1-butyl-2-yl)2(Cu(I)PF6)3 [compound 6]
IC50 [4]: 84.1 µM
Colour change in the presence of air or moisture [5]: did not change color
EPR active species (Cu2+) after H2O2 addition ([5]; solution, EPR): no EPR active species
IC50 [6]: 46.7 µM
Conversion [2, 8]: 98%

OCCCn1cc(CN(Cc2cn(CCCO)nn2)Cc2cn(CCCO)nn2)nn1.[Cu] [THPTA, Cu tris-(hydroxypropyltriazolyl)-methylamine, reference compound]
IC50 [6]: 22.4 µM
